“Also recorded” adds a separate entry of the source.
Experiments:
hP2Y14R = target: T1, hP2Y14R (Homo sapiens, UniProt Q15391); assay: Antagonism of 2; assay type: cell-based
T1 sequence (Q15391 1-338): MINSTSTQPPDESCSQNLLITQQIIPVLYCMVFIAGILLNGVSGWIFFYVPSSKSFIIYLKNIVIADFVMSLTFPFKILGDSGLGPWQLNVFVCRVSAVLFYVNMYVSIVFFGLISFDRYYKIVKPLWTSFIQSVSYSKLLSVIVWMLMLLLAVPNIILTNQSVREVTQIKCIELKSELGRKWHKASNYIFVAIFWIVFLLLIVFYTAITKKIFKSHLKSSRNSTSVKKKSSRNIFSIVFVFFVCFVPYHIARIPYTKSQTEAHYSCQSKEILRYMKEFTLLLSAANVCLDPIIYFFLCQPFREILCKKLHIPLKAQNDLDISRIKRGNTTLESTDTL

P2Y14R = target: T2, P2Y14R (Homo sapiens, UniProt Q15391); assay: Flow cytometry; details: 10 μM competing ligand, 30 min preincubation; 10 nM 30
T2 sequence (Q15391 1-338): T1 sequence (Q15391 1-338)

Ki (hP2Y14R) [nM] | effect of competing ligand on labeling of P2Y14R-CHO cells by 30, in words (P2Y14R) | Compound | other results
2.7 ± 1.2 | – | C#CCCN1CCC(c2ccc(-c3cc(C(=O)O)cc4cc(-c5ccc(C(F)(F)F)cc5)ccc34)cc2)CC1 [compound 20] | –
– | largely prevented the labeling | O=c1ccn([C@@H]2O[C@H](COP(=O)(O)OP(=O)(O)O)[C@@H](O)[C@H]2O)c(=O)[nH]1 [compound 1, uridine-5′-diphosphate] | –
13 ± 1.1 | – | C#CCCCCN1CCC(c2ccc(-c3cc(C(=O)O)cc4cc(-c5ccc(C(F)(F)F)cc5)ccc34)cc2)CC1 [compound 22] | –
– | largely prevented the labeling | O=C(O)c1cc(-c2ccc(C3CCNCC3)cc2)c2ccc(-c3ccc(C(F)(F)F)cc3)cc2c1 [compound 6, 4-(4-(piperidin-4-yl)-phenyl)-7-(4-(trifluoromethyl)-phenyl)-2-naphthoic acid] | –
14 ± 2.4 | – | NCCCN1CCC(c2ccc(-c3cc(C(=O)O)cc4cc(-c5ccc(C(F)(F)F)cc5)ccc34)cc2)CC1 [compound 27] | –
> 100 | – | O=C(CCCCCNC(=O)COc1ccc(/C=C/C2=CC3=Cc4ccc(-c5cccs5)n4[B-](F)(F)[N+]3=C2)cc1)NCCCn1cc(CCCCN2CCC(c3ccc(-c4cc(C(=O)O)cc5cc(-c6ccc(C(F)(F)F)cc6)ccc45)cc3)CC2)nn1 [compound 32] | antagonist potency / affinity at P2Y14R, in words (hP2Y14R; P2Y14R-CHO cells): much weaker; also recorded: low affinity
– | largely prevented the labeling | O=C(O)[C@H]1O[C@H](OP(=O)(O)OP(=O)(O)OC[C@H]2O[C@@H](n3ccc(=O)[nH]c3=O)[C@H](O)[C@@H]2O)[C@H](O)[C@@H](O)[C@@H]1O [compound 36, uridine-5′-diphosphoglucuronic acid] | –
26 ± 6 | – | CC(C)(C)OC(=O)NCCCN1CCC(c2ccc(-c3cc(C(=O)O)cc4cc(-c5ccc(C(F)(F)F)cc5)ccc34)cc2)CC1 [compound 26] | –
8.3 ± 1.9 | – | C#CCCCCC(=O)N1CCC(c2ccc(-c3cc(C(=O)O)cc4cc(-c5ccc(C(F)(F)F)cc5)ccc34)cc2)CC1 [compound 25] | –
– | failed at 10 μM to prevent binding of 30 | S=C=Nc1cccc(NC(=S)NCCCCNC(=S)Nc2cccc(N=C=S)c2)c1 [compound 38] | –
– | only a minor reduction | Cc1ccc(C(=O)Nc2ccc(S(=O)(=O)O)c3cc(S(=O)(=O)O)cc(S(=O)(=O)O)c23)cc1NC(=O)c1cccc(NC(=O)Nc2cccc(C(=O)Nc3cc(C(=O)Nc4ccc(S(=O)(=O)O)c5cc(S(=O)(=O)O)cc(S(=O)(=O)O)c45)ccc3C)c2)c1 [suramin] | –
6.7 ± 2.2 | – | C#CCCC(=O)N1CCC(c2ccc(-c3cc(C(=O)O)cc4cc(-c5ccc(C(F)(F)F)cc5)ccc34)cc2)CC1 [compound 24] | –
– | failed at 10 μM to prevent binding of 30 | CNc1ncnc2c1ncn2[C@H]1C[C@H](OP(=O)(O)O)[C@@H](COP(=O)(O)O)O1 [compound 37] | –
120 ± 8 | – | CCOC(=O)c1cc(-c2ccc(C3CCNCC3)cc2)c2ccc(-c3ccc(C(F)(F)F)cc3)cc2c1 [compound 19] | fold weaker as an antagonist than free carboxylate analogue 6 (hP2Y14R; relative to 6): 400 fold
2 ± 0.2 | – | C=C1CCC[N+]12CCC(c1ccc(-c3cc(C(=O)[O-])cc4cc(-c5ccc(C(F)(F)F)cc5)ccc34)cc1)CC2 (centres unmarked) [compound 23] | –

Reference: paper PMC4273980 (ACS Chemical Biology, 2014)
